Tested on: Nrf2
Test: Nrf2 activation in AREc32 cells (luciferase assay)
Format: cell-based
Conditions: for Nrf2 activation fold increase wrt the control: note to Table 1, concentration not stated
Experimental: The AREc32 cells were obtained from CRX biosciences (Dundee, Scotland, UK). AREc32 cells were seeded into 96-well plates (flat-bottom white, opaque, sterile, with lids) at a density of 2×10^4, cells/well in 100 μL of complete media per well. Cell plates were then incubated at 37° C., 5% CO2 in a 95% humidified incubator for 24 hours before active addition. Tert butylhydroquinone (TBHQ) was used as an assay positive control. For performing the Nrf2 activity assay, the cells were lysed using Passive Lysis Buffer (PLB) (5×) procured from Promega. The PLB was diluted in a 1:5 ratio with distilled water to make 1× PLB solution. 20 μL of 1× PLB was added to each well of the 96 well plate, including 2 wells without cell (control wells). The plate was covered with aluminium foil to protect from light and incubated for 20 minutes at room temperature, on a rocker incubator. After 20 minutes, 18 μL of the cell lysate was transferred from the transparent 96 well cell culture plate to an opaque, white, flat bottom 96-well plate. The white flat bottom plates were proceeded for Luciferase assay. The Luciferase assay was performed by using Luciferase Assay System, from Promega. 80 μL of the Luciferase Reagent was added using the injector on the TECAN infinite M1000 instrument. Luminescence was measured for a period of 10 seconds using the Green 1 filter. The typical delay time of 2 seconds, and read time of 10 seconds was used. 4 readings were taken from each well within 1 min. The plate was advanced to the next well for a repeat of the inject-then-read process. The luciferase value was represented as fold change over control in Table 1.

Structure (SMILES) | Nrf2 activation fold increase wrt the control | Nrf2 activation Fold change wrt control (10 μM) [fold]
CCC/C=C/C=O [E-2-Hexenal] | 1.1 fold | –
C=CC(C)(O)CCC=C(C)C (stereo not drawn) [Linalool] | barely any change | –
CC(C)(C)c1cc(O)ccc1O [TBHQ, Tert butylhydroquinone] | – | 4.5
